Assay results reported in ChEMBL document CHEMBL1212697, “High-content single-cell drug screening with phosphospecific flow cytometry” (Nat Chem Biol, 2008).
The source made the active and inactive calls. No cut-off for these calls is given here.

Assays:
[1] = Inhibition of JAK-mediated IL10-induced Stat3 phosphorylation in BALB/c mouse B cells by Phospho-Flow cytometry; type: cell-based
[2] = Inhibition of JAK-mediated IL6-induced Stat1 phosphorylation in BALB/c mouse B cells by Phospho-Flow cytometry; type: cell-based
[3] = molecular target: T1, Janus Kinase (JAK) (Homo sapiens) (UniProt P52333+P23458+O60674+P29597); test: Inhibition of JAK-mediated interferon-gamma/anisomycin-induced Stat1 phosphorylation in human U937 cells by Phospho-Flow cytometry; type: cell-based; conditions: U-937
[4] = molecular target: T1, Janus Kinase (JAK) (Homo sapiens); test: Inhibition of JAK-mediated GM-CSF-induced Stat5 phosphorylation in human U937 cells by Phospho-Flow cytometry at 20 uM; type: cell-based; conditions: U-937
[5] = molecular target: T1, Janus Kinase (JAK) (Homo sapiens); test: Inhibition of JAK-mediated interferon-gamma-induced Stat1 phosphorylation in human U937 cells by Phospho-Flow cytometry at 20 uM; type: cell-based; conditions: U-937
MAP kinase p38 = MAP kinase p38 (Homo sapiens, UniProt O15264+Q15759+Q16539+P53778); test: Inhibition of anisomycin-induced p38 phosphorylation in human U937 cells by Phospho-Flow cytometry at 20 uM; type: cell-based; conditions: U-937
[6] = Inhibition of JAK-mediated IL7-induced Stat5 phosphorylation in BALB/c mouse CD8+ T cells by Phospho-Flow cytometry; type: cell-based; conditions: T-cell
[7] = Inhibition of JAK-mediated IL6-induced Stat1 phosphorylation in BALB/c mouse CD8+ T cells by Phospho-Flow cytometry; type: cell-based; conditions: T-cell
[8] = Inhibition of JAK-mediated IL6-induced Stat3 phosphorylation in BALB/c mouse B cells by Phospho-Flow cytometry; type: cell-based
[9] = Inhibition of JAK-mediated IL15-induced Stat5 phosphorylation in BALB/c mouse CD8+ T cells by Phospho-Flow cytometry; type: cell-based; conditions: T-cell
[10] = Inhibition of JAK-mediated IL15-induced Stat5 phosphorylation in BALB/c mouse B cells by Phospho-Flow cytometry; type: cell-based
[11] = Inhibition of JAK-mediated IL4-induced Stat6 phosphorylation in BALB/c mouse CD8+ T cells by Phospho-Flow cytometry; type: cell-based; conditions: T-cell
[12] = Inhibition of JAK-mediated IL4-induced Stat5 phosphorylation in BALB/c mouse CD11b-int macrophages by Phospho-Flow cytometry
[13] = Inhibition of JAK-mediated IL10-induced Stat3 phosphorylation in BALB/c mouse CD11b-hi neutrophils by Phospho-Flow cytometry
[14] = Inhibition of JAK-mediated IL7-induced Stat5 phosphorylation in BALB/c mouse B cells by Phospho-Flow cytometry; type: cell-based
[15] = Inhibition of JAK-mediated IL4-induced Stat6 phosphorylation in BALB/c mouse CD4+ T cells by Phospho-Flow cytometry; type: cell-based; conditions: T-cell
[16] = Inhibition of JAK-mediated interferon-gamma-induced Stat1 phosphorylation in BALB/c mouse CD11b-int macrophages by Phospho-Flow cytometry
[17] = Inhibition of JAK-mediated IL7-induced Stat5 phosphorylation in BALB/c mouse CD4+ T cells by Phospho-Flow cytometry; type: cell-based; conditions: T-cell
[18] = Inhibition of JAK-mediated IL4-induced Stat5 phosphorylation in BALB/c mouse CD11b-hi neutrophils by Phospho-Flow cytometry
[19] = Inhibition of JAK-mediated IL7-induced Stat5 phosphorylation in BALB/c mouse CD11b-int macrophages by Phospho-Flow cytometry
[20] = Inhibition of JAK-mediated IL7-induced Stat5 phosphorylation in BALB/c mouse CD11b-hi neutrophils by Phospho-Flow cytometry
[21] = Inhibition of JAK-mediated IL6-induced Stat3 phosphorylation in BALB/c mouse CD11b-int macrophages by Phospho-Flow cytometry
[22] = Inhibition of JAK-mediated IL4-induced Stat5 phosphorylation in BALB/c mouse CD8+ T cells by Phospho-Flow cytometry; type: cell-based; conditions: T-cell
[23] = Inhibition of JAK-mediated IL15-induced Stat5 phosphorylation in BALB/c mouse CD4+ T cells by Phospho-Flow cytometry; type: cell-based; conditions: T-cell
[24] = Inhibition of JAK-mediated IL6-induced Stat3 phosphorylation in BALB/c mouse CD4+ T cells by Phospho-Flow cytometry; type: cell-based; conditions: T-cell
[25] = Inhibition of JAK-mediated IL15-induced Stat5 phosphorylation in BALB/c mouse CD11b-int macrophages by Phospho-Flow cytometry
[26] = Inhibition of JAK-mediated IL4-induced Stat6 phosphorylation in BALB/c mouse CD11b-int macrophages by Phospho-Flow cytometry
[27] = Inhibition of JAK-mediated IL4-induced Stat5 phosphorylation in BALB/c mouse CD4+ T cells by Phospho-Flow cytometry; type: cell-based; conditions: T-cell
[28] = Inhibition of JAK-mediated IL15-induced Stat5 phosphorylation in BALB/c mouse CD11b-hi neutrophils by Phospho-Flow cytometry
[29] = Inhibition of JAK-mediated IL6-induced Stat3 phosphorylation in BALB/c mouse CD11b-hi neutrophils by Phospho-Flow cytometry
[30] = Inhibition of JAK-mediated IL10-induced Stat3 phosphorylation in BALB/c mouse CD8+ T cells by Phospho-Flow cytometry; type: cell-based; conditions: T-cell
[31] = Inhibition of JAK-mediated IL6-induced Stat1 phosphorylation in BALB/c mouse CD11b-int macrophages by Phospho-Flow cytometry
[32] = Inhibition of JAK-mediated interferon-gamma-induced Stat1 phosphorylation in BALB/c mouse CD11b-hi neutrophils by Phospho-Flow cytometry
[33] = Inhibition of JAK-mediated IL10-induced Stat3 phosphorylation in BALB/c mouse CD11b-int macrophages by Phospho-Flow cytometry
[34] = Inhibition of JAK-mediated interferon-gamma-induced Stat1 phosphorylation in BALB/c mouse B cells by Phospho-Flow cytometry; type: cell-based
[35] = Inhibition of JAK-mediated IL6-induced Stat1 phosphorylation in BALB/c mouse CD11b-hi neutrophils by Phospho-Flow cytometry
[36] = Inhibition of JAK-mediated IL6-induced Stat3 phosphorylation in BALB/c mouse CD8+ T cells by Phospho-Flow cytometry; type: cell-based; conditions: T-cell
[37] = Inhibition of JAK-mediated IL10-induced Stat3 phosphorylation in BALB/c mouse CD4+ T cells by Phospho-Flow cytometry; type: cell-based; conditions: T-cell
[38] = Inhibition of JAK-mediated IL6-induced Stat1 phosphorylation in BALB/c mouse CD4+ T cells by Phospho-Flow cytometry; type: cell-based; conditions: T-cell
[39] = Inhibition of JAK-mediated interferon-gamma-induced Stat1 phosphorylation in BALB/c mouse CD4+ T cells by Phospho-Flow cytometry; type: cell-based; conditions: T-cell
[40] = Inhibition of JAK-mediated IL4-induced Stat5 phosphorylation in BALB/c mouse B cells by Phospho-Flow cytometry; type: cell-based

## CC(C)(C)c1nc2c3ccc(F)cc3c3c(=O)[nH]ccc3c2[nH]1
[1]
  IC50: > 20 µM
[2]
  IC50: < 20 µM
[3]
  Activity: Active

## C=C1C(=O)O[C@@H]2C[C@@H](C)[C@@H]3C=CC(=O)[C@@]3(C)[C@@H](O)[C@H]12
[4]
  inhibition: 25%
[5]
  inhibition: 25%
MAP kinase p38
  inhibition: 25%

## C=C1C(=O)O[C@@H]2C[C@@]3(C)CCC[C@H](C)C3=C[C@H]12
[4]
  inhibition: 25%
[5]
  inhibition: 25%
MAP kinase p38
  inhibition: 25%

## CC(=O)O[C@@H]1CO[C@H]2O[C@H]3[C@@H](C(C=O)=C[C@H](O)[C@@H]4C5=C(C(C)C)CC[C@]5(C)CC[C@@]34C)[C@@]2(O)C1=O
[4]
  inhibition: Active
[5]
  inhibition: > 65%
MAP kinase p38
  inhibition: 25%

## CC(=O)c1c(O)c(C)c(O)c(Cc2c(O)c3c(c(C(=O)/C=C/c4ccccc4)c2O)OC(C)(C)C=C3)c1O
[4]
  inhibition: 25%
[5]
  inhibition: > 65%
MAP kinase p38
  inhibition: 25%

## CC(C)=CC(=O)O[C@H]1[C@H]2[C@H](OC(=O)[C@H]2C)[C@H](O)[C@@H](C)[C@@H]2C=CC(=O)[C@]21C
[4]
  inhibition: 25%
[5]
  inhibition: > 65%
MAP kinase p38
  inhibition: 25%

## CC(C)c1oc(=O)cc2c1[C@@H](O)[C@H]1OC(=O)[C@@]3(C)[C@@H](O)[C@H]4O[C@H]4[C@@]2(C)[C@@H]13
[4]
  inhibition: inactive
[5]
  inhibition: inactive
MAP kinase p38
  inhibition: > 65%

## CC1CC(C)(O)CC(C(O)CC2CC(=O)NC(=O)C2)C1=O (stereo not drawn)
[4]
  inhibition: 25%
[5]
  inhibition: 25%
MAP kinase p38
  inhibition: 25%

## CC1OC(CC(=O)O)CC2=C1C(=O)c1c(O)cccc1C2=O (stereo not drawn)
[4]
  inhibition: 25%
[5]
  inhibition: > 65%
MAP kinase p38
  inhibition: 25%

## CC[C@H]1CN2CCc3cc(OC)c(OC)cc3[C@@H]2C[C@@H]1C[C@H]1NCCc2c1[nH]c1ccc(O)cc21
[4]
  inhibition: 25%
[5]
  inhibition: > 65%
MAP kinase p38
  inhibition: 25%

## CO[C@@H]1[C@@H](OC(=O)c2ccc(C)[nH]2)[C@@H](O)[C@@H](Oc2ccc3c(O)c(NC(=O)c4c[nH]c(C(=O)Nc5c(O)c6ccc(O[C@H]7OC(C)(C)[C@H](OC)[C@@H](OC(=O)c8ccc(C)[nH]8)[C@H]7O)c(C)c6oc5=O)c4C)c(=O)oc3c2C)OC1(C)C
[4]
  inhibition: inactive
[5]
  inhibition: inactive
MAP kinase p38
  inhibition: inactive

## C[C@H]1CC[C@@H]2[C@@H](C)[C@H]3[C@H](C[C@H]4[C@@H]5CC=C6C[C@@H](O[C@@H]7O[C@H](CO)[C@H](O)[C@H](O[C@@H]8O[C@H](CO)[C@@H](O)[C@H](O)[C@H]8O)[C@H]7O[C@H]7O[C@@H](C)[C@H](O)[C@@H](O)[C@H]7O)CC[C@]6(C)[C@H]5CC[C@]34C)N2C1
[4]
  inhibition: 25%
[5]
  inhibition: > 65%
MAP kinase p38
  inhibition: 25%

## C[S+]([O-])c1ccc(-c2nc(-c3ccc(F)cc3)c(-c3ccncc3)[nH]2)cc1 (stereo not drawn)
[3]
  Activity: Active

## O=C1C=C2C(=CCOC2O)O1 (stereo not drawn)
[4]
  inhibition: 25%
[5]
  inhibition: > 65%
MAP kinase p38
  inhibition: 25%

## C/C=C/C1=C(Cl)C(=O)[C@H](Cl)[C@]1(O)C(=O)OC [CRYTOSPORIOPSIN]
[6]
  IC50: < 20 µM
[7]
  IC50: < 20 µM
[8]
  IC50: < 20 µM
[9]
  IC50: < 20 µM
[10]
  IC50: < 20 µM
[11]
  IC50: < 20 µM
[12]
  IC50: < 20 µM
[4]
  inhibition: Active
[13]
  IC50: < 20 µM
[14]
  IC50: < 20 µM
[15]
  IC50: < 20 µM
[16]
  IC50: < 20 µM
[17]
  IC50: < 20 µM
[18]
  IC50: < 20 µM
[19]
  IC50: < 20 µM
[20]
  IC50: < 20 µM
[21]
  IC50: < 20 µM
[1]
  IC50: < 20 µM
[22]
  IC50: < 20 µM
[23]
  IC50: < 20 µM
[5]
  inhibition: > 65%
[24]
  IC50: < 20 µM
[25]
  IC50: < 20 µM
[26]
  IC50: < 20 µM
[27]
  IC50: < 20 µM
[28]
  IC50: < 20 µM
MAP kinase p38
  inhibition: 25%
[29]
  IC50: < 20 µM
[30]
  IC50: < 20 µM
[31]
  IC50: < 20 µM
[32]
  IC50: < 20 µM
[33]
  IC50: < 20 µM
[34]
  IC50: < 20 µM
[35]
  IC50: < 20 µM
[2]
  IC50: < 20 µM
[36]
  IC50: < 20 µM

## O=Nc1c(-c2c(O)[nH]c3ccccc23)[nH]c2ccccc12 [INDIRUBIN-3-MONOXIME]
[37]
  IC50: < 20 µM
[6]
  IC50: < 20 µM
[7]
  IC50: < 20 µM
[8]
  IC50: < 20 µM
[38]
  IC50: < 20 µM
[9]
  IC50: < 20 µM
[10]
  IC50: < 20 µM
[11]
  IC50: < 20 µM
[12]
  IC50: < 20 µM
[13]
  IC50: < 20 µM
[14]
  IC50: < 20 µM
[15]
  IC50: < 20 µM
[16]
  IC50: < 20 µM
[17]
  IC50: < 20 µM
[18]
  IC50: < 20 µM
[39]
  IC50: < 20 µM
[19]
  IC50: < 20 µM
[20]
  IC50: < 20 µM
[21]
  IC50: < 20 µM
[1]
  IC50: < 20 µM
[22]
  IC50: < 20 µM
[23]
  IC50: < 20 µM
[24]
  IC50: < 20 µM
[25]
  IC50: < 20 µM
[26]
  IC50: < 20 µM
[27]
  IC50: < 20 µM
[28]
  IC50: < 20 µM
[40]
  IC50: < 20 µM
[29]
  IC50: < 20 µM
[30]
  IC50: < 20 µM
[31]
  IC50: < 20 µM
[32]
  IC50: < 20 µM
[33]
  IC50: < 20 µM
[34]
  IC50: < 20 µM
[35]
  IC50: < 20 µM
[2]
  IC50: < 20 µM
[36]
  IC50: < 20 µM
